The source made the active and inactive calls. The calls are words filed in the database; no cut-off is given here.
Experiments:
MOLM-13 = test: Antiproliferative activity against human MOLM-13 cells assessed as inhibition of cell growth incubated for 24 hrs by MTT assay; format: functional, cell-based; settings: MOLM-13, 24 h
[1] = Toxicity in BALB/c mouse assessed as effect on spleen at 0.15 to 1.5 mg/kg measured upto 16 days; format: organism-based; settings: in vivo, 384 h, dose 0.15-1.5 mg/kg, time < 16 day
NB-4 = test: Antiproliferative activity against human NB4 cells assessed as inhibition of cell growth incubated for 24 hrs by MTT assay; format: functional, cell-based; settings: NB-4, 24 h
4T1 [2] = test: Inhibition of glycolysis in mouse 4T1 cell lysates assessed as reduction in LDHA expression at 4 uM incubated for 24 hrs; format: functional, cell-based
MCF7 = test: Antiproliferative activity against human MCF7 cells assessed as inhibition of cell growth incubated for 24 hrs by MTT assay; format: functional, cell-based; settings: MCF7, 24 h
4T1 [3] = test: Induction of ROS production in mouse 4T1 cells by confocal scanning microscopy based analysis; format: functional, cell-based
[4] = Toxicity in BALB/c mouse assessed as effect on lung at 0.15 to 1.5 mg/kg measured upto 16 days; format: organism-based; settings: in vivo, 384 h, dose 0.15-1.5 mg/kg, time < 16 day
4T1 [5] = test: Induction of apoptosis in mouse 4T1 cells assessed as increase in proportion of apoptotic cells incubated for 24 hrs by annexin V-FITC/PI staining based flow cytometry analysis; format: functional, cell-based; settings: dose 2-3 µM
4T1 [6] = test: Antiproliferative activity against PDK knockdown mouse 4T1 cells assessed as reduction in apoptotic percentage at 2 uM incubated for 24 hrs by flow cytometry analysis (reference value: 61.6%); format: functional; parameters: scale not given: the % may be the effect or the level left
4T1 [7] = test: Induction of apoptosis in mouse 4T1 cells assessed as increase in GSH content at 1 to 2 uM measured after 12 to 24 hrs; format: functional, cell-based; settings: dose 1-2 µM, time 12-24 hrs
COS-7 [8] = test: Effect on PDK1 expression in African monkey COS7 cells at 12 uM measured after 24 hrs; format: functional, cell-based; settings: Chlorocebus aethiops
4T1 [9] = test: Antiproliferative activity against mouse 4T1 cells assessed as inhibition of cell growth incubated for 24 hrs by MTT assay; format: functional, cell-based; settings: 4T1, 24 h
4T1 [10] = test: Inhibition of PDK4 expression in mouse 4T1 cells at 4 uM incubated for 24 hrs by Western blot analysis; format: functional, cell-based
COS-7 [11] = test: Effect on PDHA1 expression in African monkey COS7 cells at 12 uM measured after 24 hrs; format: functional, cell-based; settings: Chlorocebus aethiops
[12] = Toxicity in BALB/c mouse assessed as effect on heart at 0.15 to 1.5 mg/kg measured upto 16 days; format: organism-based; settings: in vivo, 384 h, dose 0.15-1.5 mg/kg, time < 16 day
4T1 [13] = test: Inhibition of glycolysis in mouse 4T1 cell lysates assessed as reduction in extracellular acidification rate at 2 to 6 uM measured after 6 hrs; format: functional, cell-based; settings: dose 2-6 µM
[14] = Toxicity in BALB/c mouse assessed as effect on UREA level at 0.15 to 1.5 mg/kg measured upto 16 days; format: organism-based; settings: in vivo, 384 h, dose 0.15-1.5 mg/kg, time < 16 day
[15] = biological target: [Pyruvate dehydrogenase (acetyl-transferring)] kinase isozyme 1, mitochondrial (Homo sapiens, UniProt Q15118); test: Inhibition of PDK1 (unknown origin) incubated for 30 mins in presence of ATP by kinase glo luminescent kinase assay
4T1 [16] = test: Induction of mitochondrial respiration in mouse 4T1 cells assessed as upregulation of intracellular ATP level at 2 uM incubated for 12 to 24 hrs […]; format: functional, cell-based; settings: time 12-24 hrs
4T1 [17] = test: Inhibition of glycolysis in mouse 4T1 cell lysates assessed as reduction in LDH activity at 1 to 2 uM incubated for 12 hrs; format: functional, cell-based; settings: dose 1-2 µM
[18] = biological target: [Pyruvate dehydrogenase (acetyl-transferring)] kinase isozyme 2, mitochondrial (Mus musculus) (UniProt Q9JK42); test: Inhibition of PDK2 transcription in mouse 4T1 cells at 4 uM incubated for 24 hrs by qPCR analysis; format: cell-based
4T1 [19] = test: Induction of mitochondrial membrane potential depolarization in mouse 4T1 cells at high dose measured after 12 hrs by JC-1 staining based analysis; format: functional, cell-based
4T1 [20] = test: Induction of mitochondrial respiration in mouse 4T1 cells assessed as increase in glucose uptake at 2 to 6 uM incubated for 18 hrs followed by 6 hrs incubation in serum free high glucose medium by glucose uptake assay; format: functional, cell-based; settings: dose 2-6 µM, time 24.0 hrs
[21] = Selectivity ratio of IC50 mouse 4T1 cells to IC50 for African green monkey COS7 cells
[22] = Toxicity in BALB/c mouse assessed as effect on liver at 0.15 to 1.5 mg/kg measured upto 16 days; format: organism-based; settings: in vivo, 384 h, dose 0.15-1.5 mg/kg, time < 16 day
4T1 [23] = test: Induction of mitochondrial respiration in mouse 4T1 cells assessed as increase in basal respiration at 2 to 6 uM incubated for 6 hrs by seahorse XF96 flux analyzer; format: functional, cell-based; settings: dose 2-6 µM
[24] = Toxicity in BALB/c mouse assessed as effect on AST level at 0.15 to 1.5 mg/kg measured upto 16 days; format: organism-based; settings: in vivo, 384 h, dose 0.15-1.5 mg/kg, time < 16 day
4T1 [25] = test: Antitumor activity against mouse 4T1 cells xenografted in BALB/c mouse model assessed as reduction in hepatosplenomegaly by measuring organ coefficient at 0.15 to 1.5 mg/kg; format: functional, organism-based; settings: dose 0.15-1.5 mg/kg
[26] = biological target: [Pyruvate dehydrogenase (acetyl-transferring)] kinase isozyme 3, mitochondrial (Mus musculus) (UniProt Q922H2); test: Inhibition of PDK3 transcription in mouse 4T1 cells at 4 uM incubated for 24 hrs by qPCR analysis; format: cell-based
4T1 [27] = test: Induction of mitochondrial respiration in mouse 4T1 cells assessed as increase in oxygen consumption rate at 2 to 6 uM incubated for 6 hrs by seahorse XF96 flux analyzer; format: functional, cell-based; settings: dose 2-6 µM
4T1 [28] = test: Recovery in mitochondrial function in mouse 4T1 cells assessed as increase in OCR/ECAR ratio; format: functional, cell-based; settings: dose 2-6 µM
4T1 [29] = test: Induction of apoptosis in mouse 4T1 cells assessed as activation of caspase 9 at 2 uM incubated for 12 to 18 hrs; format: functional, cell-based; settings: time 12-18 hrs
[30] = Antiproliferative activity against rat PBMC cells assessed as inhibition of cell growth at 5 uM incubated for 24 hrs by MTT assay; format: toxicity, cell-based
[31] = Antiproliferative activity against African green monkey COS7 cells assessed as inhibition of cell growth incubated for 24 hrs by MTT assay; format: toxicity, cell-based, Chlorocebus aethiops, COS-7; settings: African green monkey (Chlorocebus aethiops), COS-7 cells
4T1 [32] = test: Antitumor activity against mouse 4T1 cells xenografted in BALB/c mouse model assessed as reduction in inflammatory index in routine blood at 0.15 to 1.5 mg/kg; format: functional, organism-based; settings: dose 0.15-1.5 mg/kg
COS-7 [33] = test: Effect on phosphorylation of PDH expression at Serine 293 residues in African monkey COS7 cells at 12 uM measured after 24 hrs; format: functional, cell-based; settings: Chlorocebus aethiops
HeLa = test: Antiproliferative activity against human HeLa cells assessed as inhibition of cell growth incubated for 24 hrs by MTT assay; format: functional, cell-based
[34] = biological target: [Pyruvate dehydrogenase (acetyl-transferring)] kinase isozyme 4, mitochondrial (Mus musculus) (UniProt O70571); test: Inhibition of PDK4 transcription in mouse 4T1 cells at 4 uM incubated for 24 hrs by qPCR analysis; format: cell-based
[35] = Toxicity in BALB/c mouse assessed as effect on CREA level at 0.15 to 1.5 mg/kg measured upto 16 days; format: organism-based; settings: in vivo, 384 h, dose 0.15-1.5 mg/kg, time < 16 day
[36] = Toxicity in BALB/c mouse assessed as effect on UA level at 0.15 to 1.5 mg/kg measured upto 16 days; format: organism-based; settings: in vivo, 384 h, dose 0.15-1.5 mg/kg, time < 16 day

Chain of [Pyruvate dehydrogenase (acetyl-transferring)] kinase isozyme 3, mitochondrial (Mus musculus) (Q922H2 whole entry): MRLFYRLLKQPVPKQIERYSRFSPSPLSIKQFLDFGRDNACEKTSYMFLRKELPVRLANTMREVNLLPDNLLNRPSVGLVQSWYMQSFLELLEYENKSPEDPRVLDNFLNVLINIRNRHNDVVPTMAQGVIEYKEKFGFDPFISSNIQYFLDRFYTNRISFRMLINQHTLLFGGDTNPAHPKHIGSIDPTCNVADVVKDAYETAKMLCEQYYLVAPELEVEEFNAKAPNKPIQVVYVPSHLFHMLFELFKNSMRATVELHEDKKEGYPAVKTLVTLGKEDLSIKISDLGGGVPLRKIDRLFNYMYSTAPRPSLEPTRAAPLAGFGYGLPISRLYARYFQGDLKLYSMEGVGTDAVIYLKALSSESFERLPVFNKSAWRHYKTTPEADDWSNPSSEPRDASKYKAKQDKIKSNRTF
Chain of [Pyruvate dehydrogenase (acetyl-transferring)] kinase isozyme 4, mitochondrial (Mus musculus) (O70571 whole entry): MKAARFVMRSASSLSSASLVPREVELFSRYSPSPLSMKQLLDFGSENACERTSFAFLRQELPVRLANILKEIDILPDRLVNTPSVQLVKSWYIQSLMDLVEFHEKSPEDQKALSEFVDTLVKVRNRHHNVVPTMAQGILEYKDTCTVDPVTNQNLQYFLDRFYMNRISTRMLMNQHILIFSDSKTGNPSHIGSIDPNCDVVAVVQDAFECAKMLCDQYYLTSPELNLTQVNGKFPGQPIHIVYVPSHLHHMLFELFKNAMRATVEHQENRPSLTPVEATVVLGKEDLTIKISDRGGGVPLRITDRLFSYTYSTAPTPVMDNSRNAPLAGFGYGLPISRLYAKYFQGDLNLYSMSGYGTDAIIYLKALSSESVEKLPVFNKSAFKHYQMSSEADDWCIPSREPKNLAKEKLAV
Chain of [Pyruvate dehydrogenase (acetyl-transferring)] kinase isozyme 1, mitochondrial (Q15118 whole entry): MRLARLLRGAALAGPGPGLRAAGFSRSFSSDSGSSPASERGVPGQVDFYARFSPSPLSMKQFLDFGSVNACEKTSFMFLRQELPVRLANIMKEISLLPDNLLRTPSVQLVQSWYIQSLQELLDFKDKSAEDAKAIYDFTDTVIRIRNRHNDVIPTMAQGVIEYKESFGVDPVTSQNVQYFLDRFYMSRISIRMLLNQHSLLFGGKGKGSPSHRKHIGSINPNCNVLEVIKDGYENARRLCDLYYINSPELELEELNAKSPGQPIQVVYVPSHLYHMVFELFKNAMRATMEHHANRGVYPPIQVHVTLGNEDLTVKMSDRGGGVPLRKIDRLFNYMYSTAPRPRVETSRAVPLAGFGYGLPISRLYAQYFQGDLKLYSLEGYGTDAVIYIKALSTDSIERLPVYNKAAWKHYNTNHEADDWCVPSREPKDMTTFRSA

What does the source list for `O=C(CCCCCNC(=O)C(Cl)Cl)Nc1ccc([As]2SCCCS2)cc1`?
IC50 (MOLM-13): 1350 nM; Activity [1]: Non-Toxic; IC50 (NB-4): 1720 nM; inhibition (4T1 [2]): Active; IC50 (MCF7): 2500 nM; Activity (4T1 [3]): Active; Activity [4]: Non-Toxic; Activity (4T1 [5]): Dose-Dependent Effect; Activity (4T1 [6]): 16.1%; Activity (4T1 [7]): Active; Activity (COS-7 [8]): inactive; IC50 (4T1 [9]): 1920 nM; inhibition (4T1 [10]): Active; Activity (COS-7 [11]): inactive; Activity [12]: Non-Toxic; inhibition (4T1 [13]): Active; Activity [14]: Non-Toxic; EC50 [15]: 68 nM; Activity (4T1 [16]): Active; inhibition (4T1 [17]): Active; inhibition [18]: Active; Activity (4T1 [19]): Active; Activity (4T1 [20]): Active; Ratio IC50 [21]: 6; Activity [22]: Non-Toxic; Activity (4T1 [23]): Active; Activity [24]: Non-Toxic; Activity (4T1 [25]): Active; inhibition [26]: Active; Activity (4T1 [27]): Active; Activity (4T1 [28]): Dose-Dependent Effect; Activity (4T1 [29]): Active; Activity [30]: Non-Toxic; IC50 at 24 h [31]: 11200 nM; Activity (4T1 [32]): Active; Activity (COS-7 [33]): inactive; IC50 (HeLa): 2500 nM; inhibition [34]: Active; Activity [35]: Non-Toxic; Activity [36]: Non-Toxic
